Experimental data published in patent publication US8420657B2 (Novartis AG, priority 2008, dated 2013).

Columns and labels:
GST-JAK2(808-1132) = molecular target: T1, GST-JAK2(808-1132) (Homo sapiens, UniProt O60674); test: JAK2 kinase assay (Caliper mobility shift, LabChip 3000); type: biochemical
T1 construct: GST-JAK2(808-1132); purchased Invitrogen (Carlsbad, USA) #4288
Outline: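 Recombinant GST-JAK2(808-1132) kinase domain with FITC-labelled JAK3tide peptide substrate and ATP; 60 min at 30 °C, EDTA stop. Substrate/product ratio read by microfluidic mobility shift; compounds at 8 final concentrations, 10 to 0.003 μM.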

[1] = test system: JAK1/JAK2-dependent nuclear translocation of STAT1-GFP in HT1080 fibrosarcoma cells; test: STAT1 nuclear translocation assay (Cellomics), IFN-γ stimulated HT1080 STAT1-GFP cells; type: cell-based; settings: Homo sapiens, HT-1080, STAT1 translocation pathway
Outline: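 HT1080 cells stably expressing STAT1-GFP, pre-treated 30 min with compound (10 μM–0.003 μM, 0.1% DMSO), then stimulated 2 h with 100 ng/ml IFN-γ, fixed and Hoechst-stained. Nuclear-cytoplasmic GFP differential imaged over ≥1000 cells/well, normalised to unstimulated and DMSO-stimulated wells for IC50.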

T1 sequence (O60674 808-1132): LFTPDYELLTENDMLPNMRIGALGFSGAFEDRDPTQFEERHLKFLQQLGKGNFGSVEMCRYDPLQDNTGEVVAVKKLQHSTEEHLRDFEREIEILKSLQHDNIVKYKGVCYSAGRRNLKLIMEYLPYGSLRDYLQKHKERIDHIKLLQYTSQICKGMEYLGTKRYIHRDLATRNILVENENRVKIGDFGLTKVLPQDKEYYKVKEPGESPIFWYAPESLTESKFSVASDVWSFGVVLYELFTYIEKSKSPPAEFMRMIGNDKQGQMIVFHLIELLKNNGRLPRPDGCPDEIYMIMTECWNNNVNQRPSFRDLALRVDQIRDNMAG

Row | Compound | IC50 (GST-JAK2(808-1132)) | IC50 [1]
1 | CN1CCN(C(=O)Cc2ccc(-n3ccc4cnc(Nc5ccc(C(F)(F)F)cc5)nc43)cc2)CC1 [Example 145, 1-(4-Methyl-piperazin-1-yl)-2-{4-[2-(4-trifluoromethyl-phenylamino)-pyrrolo[2,3-d]pyrimidin-7-yl]-phenyl}-ethanone] | 7 nM | 365 nM
2 | Cc1ccc(Nc2ncc3ccn(-c4ccc(CC(=O)N5CCN(C)CC5)cc4)c3n2)cc1C [Example 148, 2-{4-[2-(3,4-Dimethyl-phenylamino)-pyrrolo[2,3-d]pyrimidin-7-yl]-phenyl}-1-(4-methyl-piperazin-1-yl)-ethanone] | 7.9 nM | 47 nM
3 | Cc1ccc(Nc2ncc3ccn(-c4ccc(CC(=O)N5CCN(C)CC5)cc4)c3n2)cc1 [Example 149, 1-(4-Methyl-piperazin-1-yl)-2-[4-(2-p-tolylamino-pyrrolo[2,3-d]pyrimidin-7-yl)-phenyl]-ethanone] | 130 nM | 1510 nM
4 | COc1cc(Nc2ncc3ccn(-c4ccc(CC(=O)N5CCN(C)CC5)cc4)c3n2)ccc1F [Example 150, 2-{4-[2-(4-Fluoro-3-methoxy-phenylamino)-pyrrolo[2,3-d]pyrimidin-7-yl]-phenyl}-1-(4-methyl-piperazin-1-yl)-ethanone] | 4.5 nM | 64.5 nM
5 | COc1cc(Nc2ncc3ccn(-c4ccc(C(=O)N5CCN(C)CC5)c(F)c4)c3n2)ccc1F [Example 154, {2-Fluoro-4-[2-(4-fluoro-3-methoxy-phenylamino)-pyrrolo[2,3-d]pyrimidin-7-yl]-phenyl}-(4-methyl-piperazin-1-yl)-methanone] | 250 nM | 6440 nM
6 | Cc1ccc(Nc2ncc3ccn(-c4ccc(CC(=O)N5CCS(=O)(=O)CC5)c(F)c4)c3n2)cc1C [Example 156, 2-{4-[2-(3,4-Dimethyl-phenylamino)-pyrrolo[2,3-d]pyrimidin-7-yl]-2-fluoro-phenyl}-1-(1,1-dioxido-1-thiomorpholin-4-yl)-ethanone] | 13 nM | 60 nM
7 | O=C(c1ccc(Nc2ncc3ccn(-c4ccc(CN5CCOCC5)c(F)c4)c3n2)cc1)N1CCOCC1 [Example 157, {4-[7-(3-Fluoro-4-morpholin-4-ylmethyl-phenyl)-7H-pyrrolo[2,3-d]pyrimidin-2-ylamino]-phenyl}-morpholin-4-yl-methanone] | 6.1 nM | 130 nM
8 | CN1CCN(C(=O)c2ccc(Nc3ncc4ccn(-c5ccc(CN6CCOCC6)c(F)c5)c4n3)cc2F)CC1 [Example 158, {2-Fluoro-4-[7-(3-fluoro-4-morpholin-4-ylmethyl-phenyl)-7H-pyrrolo[2,3-d]pyrimidin-2-ylamino]-phenyl}-(4-methyl-piperazin-1-yl)-methanone] | 9.4 nM | 265 nM
9 | Cc1ccc(Nc2ncc3cc(C)n(-c4ccc(CC(=O)N5CCN(C)CC5)cc4)c3n2)cc1C [Example 161, 2-{4-[2-(3,4-Dimethyl-phenylamino)-6-methyl-pyrrolo[2,3-d]pyrimidin-7-yl]-phenyl}-1-(4-methyl-piperazin-1-yl)-ethanone] | 870 nM | 9350 nM
10 | COc1cc(Nc2ncc3cc(C)n(-c4ccc(CC(=O)N5CCN(C)CC5)cc4)c3n2)ccc1F [Example 162, 2-{4-[2-(4-Fluoro-3-methoxy-phenylamino)-6-methyl-pyrrolo[2,3-d]pyrimidin-7-yl]-phenyl}-1-(4-methyl-piperazin-1-yl)-ethanone] | 305 nM | 9700 nM
11 | COc1cc(Nc2ncc3cc(C)n(-c4ccc(CN5CCOCC5)c(F)c4)c3n2)ccc1F [Example 164, (4-Fluoro-3-methoxy-phenyl)-[7-(3-fluoro-4-morpholin-4-ylmethyl-phenyl)-6-methyl-7H-pyrrolo[2,3-d]pyrimidin-2-yl]-amine] | 230 nM | 10700 nM
12 | CCOc1ccc(Nc2ncc3ccn(-c4ccc(CC(=O)N5CCN(CC)CC5)cc4)c3n2)cc1OCC [Example 165, 2-{4-[2-(3,4-Diethoxy-phenylamino)-pyrrolo[2,3-d]pyrimidin-7-yl]-phenyl}-1-(4-ethyl-piperazin-1-yl)-ethanone] | < 3 nM | 125 nM
13 | CCOc1ccc(Nc2ncc3cc(C)n(-c4ccc(CC(=O)N5CCN(C)CC5)cc4)c3n2)cc1OCC [Example 167, 2-{4-[2-(3,4-Diethoxy-phenylamino)-6-methyl-pyrrolo[2,3-d]pyrimidin-7-yl]-phenyl}-1-(4-methyl-piperazin-1-yl)-ethanone] | 39 nM | 2070 nM

Now from value to molecule:

Row | IC50 (GST-JAK2(808-1132)) | IC50 [1] | Compound
14 | 30 nM | 2510 nM | Cc1ccc(Nc2ncc3ccn(-c4ccc(CN5CCOCC5)cc4)c3n2)cc1 [Example 146, [7-(4-Morpholin-4-ylmethyl-phenyl)-7H-pyrrolo[2 3-d]pyrimidin-2-yl]-p-tolyl-amine]
15 | < 3 nM | 33 nM | CCOc1ccc(Nc2ncc3ccn(-c4ccc(CN5CCOCC5)cc4)c3n2)cc1OCC [Example 147, (3,4-Diethoxy-phenyl)-[7-(4-morpholin-4-ylmethyl-phenyl)-7H-pyrrolo[2,3-d]pyrimidin-2-yl]-amine]
16 | 3.5 nM | 168 nM | Cc1ccc(Nc2ncc3ccn(-c4ccc(C(=O)N5CCOCC5)c(F)c4)c3n2)cc1C [Example 152, {4-[2-(3,4-Dimethyl-phenylamino)-pyrrolo[2,3-d]pyrimidin-7-yl]-2-fluoro-phenyl}-morpholin-4-yl-methanone]
17 | < 3 nM | 17.5 nM | O=C(c1ccc(Nc2ncc3ccn(-c4ccc(CN5CCS(=O)(=O)CC5)cc4)c3n2)cc1)N1CCOCC1 [Example 153, (4-{7-[4-(1,1-Dioxido-thiomorpholin-4-ylmethyl)-phenyl]-7H-pyrrolo[2,3-d]pyrimidin-2-ylamino}-phenyl)-morpholin-4-yl-methanone]
18 | 200 nM | 3280 nM | Cc1ccc(Nc2ncc3ccn(-c4ccc(C(=O)N5CCN(C)CC5)c(F)c4)c3n2)cc1C [Example 155, {4-[2-(3,4-Dimethyl-phenylamino)-pyrrolo[2,3-d]pyrimidin-7-yl]-2-fluoro-phenyl}-(4-methyl-piperazin-1-yl)-methanone]
19 | 46.5 nM | 1120 nM | CCN1CCN(C(=O)C2(c3ccc(-n4ccc5cnc(Nc6ccc(C)c(C)c6)nc54)cc3)CC2)CC1 [Example 159, (1-{4-[2-(3,4-Dimethyl-phenylamino)-pyrrolo[2,3-d]pyrimidin-7-yl]-phenyl}-cyclopropyl)-(4-ethyl-piperazin-1-yl)-methanone]
20 | 41.8 nM | 973 nM | Cc1ccc(Nc2ncc3ccn(-c4ccc(CN5CCOCC5)cc4)c3n2)cc1C [Example 160, (3,4-Dimethyl-phenyl)-[7-(4-morpholin-4-ylmethyl-phenyl)-7H-pyrrolo[2,3-d]pyrimidin-2-yl]-amine]
21 | 295 nM | 23500 nM | Cc1ccc(Nc2ncc3cc(C)n(-c4ccc(CN5CCOCC5)c(F)c4)c3n2)cc1C [Example 163, (3,4-Dimethyl-phenyl)-[7-(3-fluoro-4-morpholin-4-ylmethyl-phenyl)-6-methyl-7H-pyrrolo[2,3-d]pyrimidin-2-yl]-amine]
22 | 3.4 nM | 145 nM | Cc1ccc(Nc2ncc3ccn(-c4ccc(CC(=O)N5CCOCC5)cc4)c3n2)cc1C [Example 166, 2-{4-[2-(3,4-Dimethyl-phenylamino)-pyrrolo[2,3-d]pyrimidin-7-yl]-phenyl}-1-morpholin-4-yl-ethanone]
